# Results: patent US8202881B2, “JAK2 inhibitors and their use for the treatment of myeloproliferative diseases and cancer” (Bristol-Meyers Squibb Company, priority 2009, dated 2012)
# Experiments:
# JAK2 = JAK2 (Homo sapiens, UniProt O60674); experiment: JAK2 Tyrosine Kinase Assay; format: biochemical; conditions: for IC50: ATP 30 μM, JAK2 1 nM, 60 min room temperature
# Procedure: JAK2 Tyrosine Kinase Assay
# The assays were performed in V-bottom 384-well plates. The final assay volume was 30 μL prepared from 15 μL additions of enzyme and substrates (fluoresceinated peptide and ATP) and test compounds in assay buffer (100 mM HEPES pH 7.4, 10 mM MgCl2, 25 mM Beta-Glycerolphosphate, 0.015% Brij35 and 4 mM DTT). The reaction was initiated by the combination of JAK2 with substrates and test compounds. The reaction was incubated at room temperature for 60 min. and terminated by adding 45 μL of 35 mM EDTA to each sample. The reaction mixture was analyzed on the Caliper LabChip 3000 by electrophoretic separation of the fluorescent substrate and phosphorylated product. Inhibition data were calculated by comparison to no enzyme control reactions for 100% inhibition and vehicle-only reactions for 0% inhibition. The final concentration of reagents in the assays is ATP, 30 μM; JAK2 fluorescent peptide, 1.5 μM; JAK2, 1 nM; and DMSO, 1.6%. Dose response curves were generated to determine the concentration required inhibiting 50% of kinase activity (IC50). Compounds were dissolved at 10 mM in dimethylsulfoxide (DMSO) and evaluated at eleven concentrations, each in duplicate. IC50 values were derived by non-linear regression analysis
# SET-2 cells = experiment: Cell Proliferation Inhibition Assay (3H-thymidine incorporation); format: cell-based; conditions: Homo sapiens, 72 h with compound
# Procedure: Cell Proliferation Inhibition Assay
# Compounds were evaluated for their ability to inhibit cell proliferation, using an assay that measures thymidine incorporation in the DNA of the dividing cell, which is directly correlated with cell numbers. SET-2 cells were plated at 10000 cells/well in 96-well plates and were cultured for 24 h in RPMI-1640 supplemented with 20% fetal bovine serum, before test compounds were added. Compounds were diluted in culture medium such that the final concentration of dimethyl sulfoxide never exceeded 0.1%. Following the addition of compounds, the cells were cultured for an additional 72 h before cell proliferation was determined by measuring DNA synthesis with 3H-thymidine incorporation.
# Chain of JAK2 (O60674 whole entry): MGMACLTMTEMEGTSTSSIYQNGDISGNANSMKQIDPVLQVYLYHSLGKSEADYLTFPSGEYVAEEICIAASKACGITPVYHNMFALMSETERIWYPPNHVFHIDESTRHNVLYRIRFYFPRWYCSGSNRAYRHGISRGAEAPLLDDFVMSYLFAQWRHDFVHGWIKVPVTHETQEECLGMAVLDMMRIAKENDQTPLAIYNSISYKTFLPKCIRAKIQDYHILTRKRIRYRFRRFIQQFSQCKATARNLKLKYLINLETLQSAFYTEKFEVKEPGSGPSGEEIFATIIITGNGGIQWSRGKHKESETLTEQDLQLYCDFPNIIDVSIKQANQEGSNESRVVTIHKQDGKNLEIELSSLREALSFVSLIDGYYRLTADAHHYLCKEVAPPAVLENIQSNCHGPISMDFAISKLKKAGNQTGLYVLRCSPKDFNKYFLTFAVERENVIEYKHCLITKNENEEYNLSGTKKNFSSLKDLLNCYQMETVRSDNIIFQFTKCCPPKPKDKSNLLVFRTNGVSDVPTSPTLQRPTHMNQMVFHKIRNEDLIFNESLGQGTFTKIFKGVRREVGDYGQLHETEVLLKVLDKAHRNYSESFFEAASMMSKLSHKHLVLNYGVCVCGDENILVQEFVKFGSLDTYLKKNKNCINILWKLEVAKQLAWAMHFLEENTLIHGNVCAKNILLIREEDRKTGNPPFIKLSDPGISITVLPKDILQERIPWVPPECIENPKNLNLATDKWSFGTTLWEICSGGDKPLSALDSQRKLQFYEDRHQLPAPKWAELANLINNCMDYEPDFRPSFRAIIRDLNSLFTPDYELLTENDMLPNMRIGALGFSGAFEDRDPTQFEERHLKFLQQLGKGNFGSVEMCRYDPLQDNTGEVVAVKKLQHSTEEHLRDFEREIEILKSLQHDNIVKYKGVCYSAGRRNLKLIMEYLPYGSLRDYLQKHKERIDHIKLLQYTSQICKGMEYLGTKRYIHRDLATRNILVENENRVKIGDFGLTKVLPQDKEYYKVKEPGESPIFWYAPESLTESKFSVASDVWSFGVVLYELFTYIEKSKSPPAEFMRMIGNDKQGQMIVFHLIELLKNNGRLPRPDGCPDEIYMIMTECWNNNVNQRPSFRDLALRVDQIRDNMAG
IC50 (JAK2) [nM],activity against JAK2 (JAK2; result in words),Compound,IC50 (SET-2 cells) [nM]
1.5,–,"CCn1c(C(=O)N(C2CC2)C2CC2)cc2c3c(ncn3C)c(Nc3nc(CF)cs3)nc21 [Example 3, N,N-dicyclopropyl-6-ethyl-4-(4-(fluoromethyl)thiazol-2-ylamino)-1-methyl-1,6-dihydroimidazo[4,5-d]pyrrolo[2,3-b]pyridine-7-carboxamide]",10
30,–,"CCn1c(C(=O)N(C2CC2)C2CC2)cc2c3c(ncn3C)c(Nc3nc(C(C)(C)C)cs3)nc21 [Example 4, 4-(4-tert-butylthiazol-2-ylamino)-N,N-dicyclopropyl-6-ethyl-1-methyl-1,6-dihydroimidazo[4,5-d]pyrrolo[2,3-b]pyridine-7-carboxamide]",2530
1.52,–,"CCn1c(C(=O)N(C2CC2)C2CC2)cc2c3c(ncn3C)c(Nc3nc(C(=O)NC4CCS(=O)(=O)C4)cs3)nc21 (stereo not shown) [Example 15, N,N-dicyclopropyl-4-((4-((1,1-dioxidotetrahydro-3-thiophenyl)carbamoyl)-1,3-thiazol-2-yl)amino)-6-ethyl-1-methyl-1,6-dihydroimidazo[4,5-d]pyrrolo[2,3-b]pyridine-7-carboxamide]",490
10,–,"CCn1c(C(=O)N(C2CC2)C2CC2)cc2c3c(ncn3C)c(Nc3nc(C(F)(F)F)c(C)s3)nc21 [Example 29, N,N-dicyclopropyl-6-ethyl-1-methyl-4-(5-methyl-4-(trifluoromethyl)thiazol-2-ylamino)-1,6-dihydroimidazo[4,5-d]pyrrolo[2,3-b]pyridine-7-carboxamide]",10000
0.637,–,"CCn1c(C(=O)N(C2CC2)C2CC2)cc2c3c(ncn3C)c(Nc3nc4c(s3)CS(=O)(=O)CC4)nc21 [Example 33, 4-(5,5-dioxo-4,5,6,7-tetrahydro-5λ^6-thiopyrano[4,3-d]thiazol-2-ylamino)-6-ethyl-1-methyl-1,6-dihydro-1,3,5,6-tetraaza-as-indacene-7-carboxylic acid dicyclopropylamide]",10
1.5,–,"CCn1c(C(=O)N(C2CC2)C2CC2)cc2c3c(ncn3C)c(Nc3nc(C)c(C(C)=O)s3)nc21 [Example 34, 4-(5-acetyl-4-methylthiazol-2-ylamino)-N,N-dicyclopropyl-6-ethyl-1-methyl-1,6-dihydroimidazo[4,5-d]pyrrolo[2,3-b]pyridine-7-carboxamide]",240
0.536,–,"CCn1c(C(=O)N(C2CC2)C2CC2)cc2c3c(ncn3C)c(Nc3nc4cc[nH]c(=O)c4s3)nc21 [Example 35, N,N-dicyclopropyl-6-ethyl-1-methyl-4-(4-oxo-4,5-dihydrothiazolo[5,4-c]pyridin-2-ylamino)-1,6-dihydroimidazo[4,5-d]pyrrolo[2,3-b]pyridine-7-carboxamide]",2850
40,–,"CCn1c(C(=O)N(C2CC2)C2CC2)cc2c3c(ncn3C)c(Nc3ncc(C#N)s3)nc21 [Example 38, 4-(5-cyanothiazol-2-ylamino)-N,N-dicyclopropyl-6-ethyl-1-methyl-1,6-dihydroimidazo[4,5-d]pyrrolo[2,3-b]pyridine-7-carboxamide]",60
50,–,"CCNC(=O)c1nc(Nc2nc3c(cc(C(=O)N(C4CC4)C4CC4)n3CC)c3c2ncn3C)sc1C [Example 49, 2-(7-(dicyclopropylcarbamoyl)-6-ethyl-1-methyl-1,6-dihydroimidazo[4,5-d]pyrrolo[2,3-b]pyridine-4-ylamino)-N-ethyl-5-methylthiazole-4-carboxamide]",3930
1.47,–,"CCn1c(C(=O)N(C2CC2)C2CC2)cc2c3c(ncn3C)c(Nc3nc(C)c(C(=O)NCCOC)s3)nc21 [Example 53, 2-(7-(dicyclopropylcarbamoyl)-6-ethyl-1-methyl-1,6-dihydroimidazo[4,5-d]pyrrolo[2,3-b]pyridin-4-ylamino)-N-(2-methoxyethyl)-4-methylthiazole-5-carboxamide]",100
0.748,–,"CCn1c(C(=O)N(C2CC2)C2CC2)cc2c3c(ncn3C)c(Nc3nc(C)c(C(=O)N4CCC4)s3)nc21 [Example 55, 4-(5-(azetidine-1-carbonyl)-4-methylthiazol-2-ylamino)-N,N-dicyclopropyl-6-ethyl-1-methyl-1,6-dihydroimidazo[4,5-d]pyrrolo[2,3-b]pyridine-7-carboxamide]",4.3
0.751,–,"CCn1c(C(=O)N(C2CC2)C2CC2)cc2c3c(ncn3C)c(Nc3nc(C)c(C(=O)NCC#N)s3)nc21 [Example 61, 4-((5-((cyanomethyl)carbamoyl)-4-methyl-1,3-thiazol-2-yl)amino)-N,N-dicyclopropyl-6-ethyl-1-methyl-1,6-dihydroimidazo[4,5-d]pyrrolo[2,3-b]pyridine-7-carboxamide]",–
0.733,–,CCn1c(C(=O)N(C2CC2)C2CC2)cc2c3c(ncn3C)c(Nc3nc(C)c(C(=O)N4CCS(=O)(=O)CC4)s3)nc21 [Example 70],330
1,–,"CCn1c(C(=O)N(C2CC2)C2CC2)cc2c3c(ncn3C)c(Nc3cc(C)n(C)n3)nc21 [Example 73, N,N-dicyclopropyl-4-(1,5-dimethyl-1H-pyrazol-3-ylamino)-6-ethyl-1-methyl-1,6-dihydroimidazo[4,5-d]pyrrolo[2,3-b]pyridine-7-carboxamide]",60
15.2,–,"CCn1c(C(=O)N(C2CC2)C2CC2)cc2c3c(ncn3C)c(Nc3cc(C)n(C4CCC4)n3)nc21 [Example 81, 4-(1-cyclobutyl-5-methyl-1H-pyrazol-3-ylamino)-N,N-dicyclopropyl-6-ethyl-1-methyl-1,6-dihydroimidazo[4,5-d]pyrrolo[2,3-b]pyridine-7-carboxamide]",339
0.695,–,"CCn1c(C(=O)N(C2CC2)C2CC2)cc2c3c(ncn3C)c(Nc3cnn(C)c3)nc21 [Example 98, N,N-dicyclopropyl-6-ethyl-1-methyl-4-(1-methyl-1H-pyrazol-4-ylamino)-1,6-dihydroimidazo[4,5-d]pyrrolo[2,3-b]pyridine-7-carboxamide]",7.37
0.743,–,"CCn1nc(Nc2nc3c(cc(C(=O)N(C4CC4)C4CC4)n3CC)c3c2ncn3C)cc1C(=O)O [Example 101, 3-(7-(dicyclopropylcarbamoyl)-6-ethyl-1-methyl-1,6-dihydroimidazo[4,5-d]pyrrolo[2,3-b]pyridin-4-ylamino)-1-ethyl-1H-pyrazole-5-carboxylic acid]",10000
1.52,–,"CCn1nc(Nc2nc3c(cc(C(=O)N(C4CC4)C4CC4)n3CC)c3c2ncn3C)cc1C(=O)NCCNC(C)=O [Example 109, 4-((5-((2-acetamidoethyl)carbamoyl)-1-ethyl-1H-pyrazol-3-yl)amino)-N,N-dicyclopropyl-6-ethyl-1-methyl-1,6-dihydroimidazo[4,5-d]pyrrolo[2,3-b]pyridine-7-carboxamide]",4150
1.49,–,"CCn1c(C(=O)N(C2CC2)C2CC2)cc2c3c(ncn3C)c(Nc3cc(CN4CCOCC4)n(C)n3)nc21 [Example 116, N,N-dicyclopropyl-6-ethyl-1-methyl-4-(1-methyl-5-(morpholinomethyl)-1H-pyrazol-3-ylamino)-1,6-dihydroimidazo[4,5-d]pyrrolo[2,3-b]pyridine-7-carboxamide]",170
50,–,"CCn1c(C(=O)N(C2CC2)C2CC2)cc2c3c(ncn3C)c(Nc3nc(C)n(C)n3)nc21 [Example 125, N,N-dicyclopropyl-4-(1,5-dimethyl-1H-1,2,4-triazol-3-ylamino)-6-ethyl-1-methyl-1,6-dihydroimidazo[4,5-d]pyrrolo[2,3-b]pyridine-7-carboxamide]",1270
–,weak activity,"CCNC(=O)c1cc2c(nc(NC)c3ncn(C)c32)[nH]1 [Example No. A171, reference compound]",–
